Measurements taken from US20240239762A1, “NOVEL HETEROCYCLIC COMPOUNDS” (FLORATEK PHARMA S.A., priority 2021, published 2024).
Entries after “also recorded” stand apart in the source; their conditions may differ. Read-outs that look alike come from different tables or passages of the source.

Legend:
[1] = test system: C. elegans; conditions: cited from earlier work
[2] = test system: C. elegans strain SD1347; assay: Age-related sarcopenia model: muscle mitochondrial fragmentation scoring; format: in vivo, Caenorhabditis elegans; conditions: day 11; 50 μM; ANOVA and multiple comparisons (FIG. 8)
Method: C. elegans strain SD1347 confirmed to have nuclear and mitochondrial GFP labeling in muscle was obtained from the Caenorhabditis Genetic Center.
Synchronized worm populations were administered a single concentration of 50 μM SND compounds by exposure on NGM plates starting the day before adulthood. All plates contained 50 μM 5-Fluorodeoxyuridine (FUdR) to prevent progeny production. Animals were immobilized using NemaGel (InVivo Biosystems) and imaged within 1 hour. Worms were alive throughout imaging. For each worm imaged, one head and one tail image was collected from regions excluding the pharynx, vulva, and tip of the tail. For day 1, a single session imaged a minimum of 5 worms per condition.
For aged worms, two total biological replicates were collected, each with 5-6 worms imaged per condition. Images were obtained using a Nikon Eclipse Ti2 spinning disk confocal microscope. After processing, each image was scored blindly in replicate groups by six viewers.
Stock solutions of SND compounds were prepared by dissolving to 50 mM in DMSO. Working solutions were prepared such that the final concentration of compound in the total volume of the solid media would be 50 μM, and the DMSO concentration would not exceed 0.1% (e.g. 10 μl in a 10 mL dish). […]

[3] = test system: C. elegans; assay: Lifespan assay on the Automated Lifespan Machine; format: in vivo, Caenorhabditis elegans; conditions: 50 μM; for Max life span: 95th percentile of lifespans in each group; for Mean life span: calculated from the area under the survival curve; for Median life span: day 1 set at day 1 of adulthood, time at which 50% of the worms have died
Excerpt: To prevent chemical modification or metabolism of the test article by the food bacteria, worms were fed on a lawn of UV-killed bacteria (UV-i bacteria). An overnight culture of E. coli strain WP-2 was pelleted, washed, filtered, and irradiated. A suspension of UV-i bacteria was spotted on NGM agar containing Streptomycin to inhibit the growth of contaminating bacteria. The quantity and distribution of food bacteria were calibrated to ensure adequate access to food for the duration of assay while maintaining visibility of the worms.
Test compounds were soluble in 100% DMSO. The compounds were dissolved in a working solution and then combined directly with the food bacteria before seeding on agar plates. The food spots are dried slowly, allowing the compound to diffuse into the food bacteria and the agar for at least 24 hours before worms were introduced.
The ALM used by InVivoBiosystems is based on the Caenorhabditis elegans lifespan machine published by Stroustrup et. Al [Stroustrup, N. et al. The Caenorhabditis elegans Lifespan Machine. Nat Methods 10, 665-670 (2013)], with proprietary modifications to improve temperature stability and image acquisition. The scanner unit consisted of a modified EPSON V850 and images were processed and analyzed using the ALM software. The machine time-of-death calls are trained and validated using the “storyboarding” feature of the ALM software.
The lifespan assay was designed and performed according to published and validated methods [Amrit, F. R. G., Ratnappan, R., Keith, S. A. & Ghazi, A. The C. elegans lifespan assay toolkit. Methods 68, 465-475 (2014).] using a modified version of the Automated Lifespan Machine 7.
The lifespan assay was initiated by expanding all replicate groups to more than 1000 worms, then synchronizing by bleaching and allowing larval worms to hatch and arrest. To suppress progeny, worms were transferred to media containing 5-Fluorodeoxyuridine (FUdR) within 54-60 hours post-plating. Worms were inspected 24 and 48 hours after this transfer to confirm infertility. Finally, the worms were inspected for general health and morphology before transferring to scanner plates. The scanner plates were transferred to scanners for automated imaging on day 3 of adulthood.
Plates were immobilized inverted on the bed of an Automated Lifespan Machine which scanned two images per hour of the plates continuously for the next 40 days.
Time of death calls exported from the ALM software was analyzed and plotted using the Lifelines software package developed by Cam Davidson-Pilon et. al [Davidson-Pilon, C et. al. Lifelines survival analysis package. CamDavidsonPilon/lifelines: vo. 25-9.]. Additional analysis was performed using the OASIS2 analysis software6.
Worm movement was tracked from the images acquired by the ALM during the lifespan assay. Worm size and movement features were extracted and analyzed using custom software.

[4] = test system: C. elegans; assay: Global gene expression by mRNA sequencing (RNA-Seq), GO enrichment and pathway mapping; format: in vivo, Caenorhabditis elegans
Method: To identify potential mechanisms of action through which SND305 and SND306 could affect aging, global gene expression was analyzed by mRNA sequencing (RNA-Seq). Worms were treated on the same media and conditions as the lifespan assay, then young worms were harvested at adult day 3 and aged worms harvested at adult day 10. Three replicates of treated samples were analyzed.
More than 300 day 1 adult worms per replicate were harvested, cleaned by filtration, and frozen at −80° in Trizol. To extract RNA, samples were thawed, vigorously vortexed, and processed using the Direct-zol RNA Miniprep Kit (Zymo Research). All samples exceeded the threshold for RNA quantity and quality.
The total RNA was then enriched for poly-mRNA using oligo(dT) paramagnetic beads. DNA libraries were then constructed from this input mRNA using the NEBNext Ultra™ II RNA Library Prep Kit. This created a ready-to-sequence dsDNA library that retained the strand-specific information in the original mRNA. These libraries were then further tested by the Qubit for concentration and the Agilent 2100 for library size distribution and quality. In order to properly pool the libraries and load them onto sequencing lanes to ensure the correct number of reads per sample, an even more precise quantification of the library was done via qPCR, and the samples were loaded onto the NovaSeq 6000 platform for a paired-end sequencing run of 150 bp for each end (PE150). The loading concentrations were designed to obtain at least 6.0 Gb (which is the number of billion bases of raw data, determined by the number of reads multiplied by the length of each read).
The raw data set was analyzed for • 1. The distribution of base quality along the length of the sequencing read • 2. The distribution of error rate along the length of the sequencing read • 3. The distribution of A/T/G/C bases along the length of the sequencing read • 4. The distribution of raw data filtering results based on the following three criteria: • a. Removing reads containing adapter sequence • b. Removing reads with N>10% (where N means “base cannot be determined”) • c. Removing reads with a low quality (Qscore<=5) for 50% or more of its total bases
Multidimensional scaling makes it possible to see strong patterns in large, complex data sets by reducing the data to two or three dimensions. When the data is plotted along these few dimensions, the samples form clustered based on their overall similarity to one another. The distance between samples is calculated based on the Biological Coefficient of Variation (BCV). Greater differences were observed between all conditions at Day 10 than at Day 3. To identify genes that are differentially expressed upon treatment with SND305 and SND306, the gene counts for each of the treated samples were compared against the control.
GO enrichment analysis is a common approach that identifies functional groups form lists of differentially expressed genes. Genes are annotated based on functional categories (gene ontologies) that are further categorized by biological process (BP), molecular function (MF), or cellular compartment (CC). A comparison is made between the likelihood of seeing genes in that category (ontology) being enriched or depleted in the list of DEGs when compared to a random selection of genes.
In order to identify which cellular pathways were most likely modulated by treatment with SND305 and SND306 and gain insight into how these pathways might contribute to mechanism of action (MoA), the genes differentially expressed after SND305 and SND306 treatment were mapped to core established longevity pathways from the literature. The mapping was then expanded to intersecting and supporting pathways. This placed the transcriptomic data within the context of well-characterized biological pathways, particularly several related to longevity.

[5] = aged (Day 10) worms, weighted by the p-value

Row | SMILES | Accumulation of dysfunctional mitochondria with age [1] | Effect on lifespan [1] | Sum of the mitochondrial fragmentation scores per image vs control [2] | Effect on lifespan [3] | Max life span [3] [days] | Mean life span [3] [days] | Median life span [3] [days] | Noteable GO categories enriched or depleted, Down ([4]; Day 3) | Noteable GO categories enriched or depleted, Up ([4]; Day 3) | Noteable GO categories enriched or depleted, Down ([4]; Day 10) | Noteable GO categories enriched or depleted, Up ([4]; Day 10) | Expression of genes specifically involved in axon regeneration ([4]; Day 10 (FIGS. 4 and 5)) | Differentially expressed genes above threshold (volcano plot) ([4]; Day 10, P-value<0.05 and fold change >2.0) | CTSB expression, fold down- [4, 5] [fold] | CTSD expression, fold down- [4, 5] [fold] | LAMP expression, fold up- [4, 5] [fold] | Expression of cathepsin orthologs cpr-1, cpr-4, cpr-9 ([4]; day 3 (FIGS. 2 and 3)) | Insulin Signaling (IIS) Pathway components daf-18, akt-1, and daf-16 ([4]; day 3 (FIGS. 2 and 3))
1 | O=c1oc2cc(O)ccc2c2ccc(O)cc12 [Urolithin A, urolithin A] | prevented the accumulation of dysfunctional mitochondria with age | extended lifespan | did not reach statistical significance | – | – | – | – | – | – | – | – | – | – | – | – | – | – | –
2 | CC(C)NC(=O)Oc1ccc2c(c1)COc1cc(OC(=O)NC(C)C)ccc1-2 [SND306] | – | – | significantly less fragmentation than the control | increased the life span with statistical significance | 34.6 | 25.8 | 26.6 | hydrolase activity | structural constituent of cuticle (e.g. collagen), immune response, lipid | extracellular region, immune response, response to other organism | enrichment in genes involved with axon development and regeneration; also recorded: nervous system development, neurogenesis, regulation of gene expression | upregulation | a large number of DEGs above threshold | > 5 | > 5 | > 5 | upregulated | slight modulation
3 | CO[C@H]1C[C@@H]2CC[C@@H](C)[C@@](O)(O2)C(=O)C(=O)N2CCCC[C@H]2C(=O)O[C@H]([C@H](C)C[C@@H]2CC[C@@H](O)[C@H](OC)C2)CC(=O)[C@H](C)/C=C(\C)[C@@H](O)[C@@H](OC)C(=O)[C@H](C)C[C@H](C)/C=C/C=C/C=C/1C [Rapamycin, reference compound] | – | – | – | – | 33.0 | 26.2 | 26.5 | – | – | – | – | – | – | – | – | – | – | –
